From PMC8949187, “Study of Structure–Activity Relationships of the Marine Alkaloid Fascaplysin and Its Derivatives as Potent Anticancer Agents” (Marine Drugs, 2022)

Experiments:
[1] = tested on: 22Rv1 cells; test: Trypan blue-based viability assay; format: cell-based, human; details: Homo sapiens, 48 h of treatment, mean ± SD, read-out: IC50, trypan blue staining assay
Description: The effect of the drugs on cell viability in terms of cellular membrane integrity was evaluated by the trypan blue exclusion assay as described before. In brief, cells (0.2 × 10^6 cells/well) were seeded in 6-well plates and incubated overnight, and the media was replaced with fresh media (1 mL/well) containing drugs at indicated concentrations. After treatment for 48 h, the cells were harvested by trypsinization, stained with trypan blue and the viability was measured using an automatic Beckman Coulter Vi-CELL (Beckman Coulter, Krefeld, Germany). Trypan blue-positive cells were assumed to have damaged cellular membrane (i.e., dead), whereas trypan blue-negative cells were considered to have an intact cellular membrane (i.e., alive).

[2] = tested on: PC-3 cells; test: MTT assay, PC-3 cells; format: cell-based, human; details: Homo sapiens, PC-3; prostate cancer cells; 48 h of treatment; mean ± SD
Description: (§1) The human prostate cancer cell lines PC-3, DU145, 22Rv1 and LNCaP, as well as human prostate non-cancer cell line PNT2 were purchased from ATCC (Manassas, VA, USA). HEK 293T (human embryonic kidney cells) and MRC-9 (human fibroblast cells) cell lines were purchased from ECACC (Salisbury, UK). […] Authentication of all cell lines used was recently performed by a commercial service (Multiplexion GmbH, Heidelberg, Germany).
(§2) Cells were cultured as monolayers at 37 °C in a humidified atmosphere with 5% (v/v) CO2 in the correspondent culture medium: 10% FBS/RPMI medium (RPMI medium supplemented with Glutamax^TM-I (gibco® Life technologies^TM, Paisley, UK) containing 10% fetal bovine serum (FBS, gibco® Life technologies^TM) and 1% penicillin/streptomycin (Invitrogen)) for PNT2, LNCaP, 22Rv1, PC-3 and DU145 and cells; 10% FBS/DMEM medium (DMEM medium supplemented with Glutamax^TM-I (gibco® Life technologies^TM) containing 10% FBS and 1% penicillin/streptomycin (gibco® Life technologies^TM)) for MRC-9 and HEK 293 cells. Cells were continuously kept in culture for a maximum of 3 months, and were regularly checked for stable phenotype and mycoplasma infection.
(§3) Effect of the drugs on cell viability in terms of metabolic activity was assessed by MTT assay, as previously reported. Cells were pre-incubated overnight in 96-well plates (6 × 10^3 cells/well in 100 μL/well) in the correspondent culture media. Then, the medium was replaced with fresh 10% FBS/RPMI medium containing the investigated compounds (100 μL/well), and cells were incubated for 48 h, unless otherwise stated. Next, 10 μL/well of (3-(4,5-dimethylthiazol-2-yl)-2,5-diphenyltetrazolium bromide) reagent (MTT, 5 mg/mL) was added. After 2–4 h of incubation, the media was aspirated and the plates were dried. Then, 50 μL/well of DMSO was added to each well and the cell viability was measured using an Infinite F200PRO reader (TECAN, Männedorf, Switzerland). Results were calculated using the GraphPad Prism software v.9.1.1 (GraphPad Software, San Diego, CA, USA) and are represented as IC50 of the compounds calculated using the cells treated with the solvent alone as a control.

[3] = tested on: HEK-293 cells; test: MTT assay, HEK-293 cells; format: cell-based, human; details: Homo sapiens, HEK293; non-cancer cells; 48 h of treatment; mean ± SD
Description: as §1, §2, §3

[4] = tested on: double-stranded calf thymus DNA; test: Thiazole orange displacement (DNA intercalation) assay; format: binding; details: 1 µM calf thymus DNA base pairs, 2 µM thiazole orange; 7 min at room temperature; mean ± SD
Description: DNA intercalation activity of the compounds was calculated as an ability to displace thiazole orange (TO) from the double-stranded DNA. For this experiment, a mixture (100 µL) containing 1 µM of double-stranded calf thymus DNA (recalculated as a concentration of base pairs) and 2 µM of thiazole orange (TO) solved in water was prepared. Then, the investigated compounds were added up to final concentrations of 0.39–25 µM; DMSO concentration in the samples was <0.02%. Propidium iodide (PI, positive control) was added up to final concentrations of 0.039–2.5 uM. After 7 min of incubation at room temperature, TO fluorescence was monitored using a multimodal plate reader TECAN Spark (Tecan Group Ltd., Männedorf Switzerland) at the excitation λ = 480 nm; fluorescence was recorded at λ = 530 nm. The bandwidth was 10 nm. The concentration of the drug that caused a decrease in TO fluorescence by 50% (EC50) was determined by approximating the experimental data using a non-linear regression algorithm and calculated using the GraphPad Prism software v.9.1.1 (GraphPad Software, San Diego, CA, USA).

[5] = tested on: 22Rv1 cells; test: DNA fragmentation (apoptosis, sub-G1), flow cytometry with PI staining; format: cell-based, human; details: treated at IC50 (MTT assay) for 48 h, mean ± SD
Description: (§4) The effects on cell cycle progression and DNA fragmentation were analyzed by flow cytometry using PI staining, as described before. Cells (2 × 10^5 cells/well) were pre-incubated overnight in 6-well plates and then treated with the investigated drugs in fresh culture media (2 mL/well) for 48 h. Cells were harvested by trypsinization, fixed in 70% EtOH, stained with PI solution and analyzed by FACS Calibur (BD Bioscience, San Jose, CA, USA). The results were quantified using BD Bioscience Cell Quest Pro v.5.2.1. software (BD Bioscience). The cells appearing as a sub-G1 population (containing fragmented DNA) were considered to be apoptotic.

[6] = tested on: DU145 cells; test: MTT assay, DU145 cells; format: cell-based, human; details: Homo sapiens, DU-145; prostate cancer cells; 48 h of treatment; mean ± SD
Description: as §1, §2, §3

[7] = tested on: PNT2 cells; test: MTT assay, PNT2 cells; format: cell-based, human; details: Homo sapiens, PNT2; non-cancer cells; 48 h of treatment; mean ± SD
Description: as §1, §2, §3

[8] = tested on: 22Rv1 cells; test: MTT assay, 22Rv1 cells; format: cell-based, human; details: Homo sapiens, 22Rv1; prostate cancer cells; 48 h of treatment; mean ± SD
Description: as §1, §2, §3

[9] = tested on: prostate cancer cell lines (PC-3, 22Rv1, DU145 and LNCaP); test: MTT assay, mean over four prostate cancer cell lines; format: cell-based; details: Homo sapiens; mean of MTT IC50 in PC-3, 22Rv1, DU145 and LNCaP; from Table S1 values; read-out: mean IC50 in cancer cells
Description: as §3, with “Next, SAR analysis was performed to identify the structural elements that are beneficial for anticancer activity of the fascaplysin-related molecules. Considering the complex and heterogeneous nature of tumors even within the same patient, we used calculated mean IC50 values of each drug in all prostate cancer cells for further analysis (Figure 2A). To identify the drug candidates with the highest therapeutic potential, the selectivity index (SI) was calculated as mean IC50 in non-cancer cells versus mean IC50 in cancer cells (Figure 2B), or as a mean IC50 in non-cancer (MRC-9 and HEK293) cells versus mean IC50 in prostate cells (cancer PC-3, 22Rv1, DU145, LNCaP and non-cancer PNT2 cells) (Figure 2C). Finally, to estimate the effects on cellular metabolism, we compared the activity evaluated by using trypan blue assay versus MTT assay (Figure 2D). Effect” for “Effect”, “2-4” for “2–4”, “F200PRO” left out

[10] = tested on: non-cancer cell lines versus cancer cell lines; test: Selectivity index from MTT IC50s; format: cell-based, human; details: for Selectivity index, IC50 (non-prostate) / IC50 (prostate): mean IC50 MRC-9 and HEK-293 versus mean IC50 prostate cancer cell lines plus PNT2; for Selectivity index, IC50 (non-prostate) / IC50 (prostate) / Selectivity index, IC50 (non-cancer) / IC50 (cancer): MTT; for Selectivity index, IC50 (non-cancer) / IC50 (cancer): mean IC50 non-cancer cell lines versus mean IC50 cancer cell lines
Description: as §3, with “Next, SAR analysis was performed to identify the structural elements that are beneficial for anticancer activity of the fascaplysin-related molecules. Considering the complex and heterogeneous nature of tumors even within the same patient, we used calculated mean IC50 values of each drug in all prostate cancer cells for further analysis (Figure 2A). To identify the drug candidates with the highest therapeutic potential, the selectivity index (SI) was calculated as mean IC50 in non-cancer cells versus mean IC50 in cancer cells (Figure 2B), or as a mean IC50 in non-cancer (MRC-9 and HEK293) cells versus mean IC50 in prostate cells (cancer PC-3, 22Rv1, DU145, LNCaP and non-cancer PNT2 cells) (Figure 2C). Finally, to estimate the effects on cellular metabolism, we compared the activity evaluated by using trypan blue assay versus MTT assay (Figure 2D). Effect” for “Effect”, “2-4” for “2–4”, “F200PRO” left out

[11] = tested on: MRC-9 cells; test: MTT assay, MRC-9 cells; format: cell-based, human; details: Homo sapiens, MRC9; non-cancer cells; 48 h of treatment; mean ± SD
Description: as §1, §2, §3

[12] = tested on: LNCaP cells; test: MTT assay, LNCaP cells; format: cell-based, human; details: Homo sapiens, LNCaP; prostate cancer cells; 48 h of treatment; mean ± SD
Description: as §1, §2, §3

[13] = tested on: 22Rv1 cells; test: Cell cycle progression, flow cytometry with PI staining; format: cell-based, human; details: treated at IC50 (MTT assay) for 48 h
Description: as §4

[14] = tested on: VEGFR2; design: method as in PMID 28961193; details: cited from earlier work
[15] = tested on: TRKA; design: method as in PMID 28961193; details: cited from earlier work
[16] = tested on: VEGFR3; design: method as in PMID 28961193; details: cited from earlier work
[17] = tested on: tumor growth; design: method as in PMID 28961193, PMID 25561006; details: various in vivo models; cited from earlier work

Row | Structure (SMILES) | IC50 [1] [µM] | IC50 [2] [µM] | IC50 [3] [µM] | EC50 [4] [µM] | % of sub-G1 apoptotic cells (at IC50) [5] [%] | IC50 [6] [µM] | IC50 [7] [µM] | IC50 [8] [µM] | IC50 [9] [µM] | Selectivity index, IC50 (non-prostate) / IC50 (prostate) [10] | Selectivity index, IC50 (non-cancer) / IC50 (cancer) [10] | IC50 [11] [µM] | IC50 [12] [µM] | Cell cycle arrest (at IC50) [13] | Selectivity index (SI), for Figure 2B,C ([10]; both SI definitions (Figure 2B,C)) | concentration inhibiting VEGFR2 [14] | concentration inhibiting TRKA [15] | concentration inhibiting VEGFR3 [16] | dose at which tumor growth is inhibited [17] [mg/kg]
1 | O=C1c2ccc(Br)cc2-[n+]2ccc3c([nH]c4cccc(Br)c43)c21.[Cl-] [Compound 9, 12,13-dihydro-3,8-dibromo-13-oxopyrido[1,2-a:3,4-b’]diindol-5-ium chloride] | 0.259 ± 0.094 | 1.39 ± 0.7 | 0.58 ± 0.099 | 0.69 ± 0.02 | 28.7±3.49 | 0.334 ± 0.034 | 0.369 ± 0.024 | 0.209 ± 0.072 | 0.57 | 2.48 | 1.75 | 2.07 ± 0.47 | 0.361 ± 0.085 | No | – | – | – | – | –
2 | O=C1c2ccccc2-[n+]2c(-c3ccccc3)cc3c([nH]c4ccccc43)c21.[Cl-] [Compound 20, 12,13-dihydro-6-phenyl-13-oxopyrido[1,2-a:3,4-b’]diindol-5-ium chloride] | 0.207 ± 0.074 | 0.429 ± 0.1 | 0.412 ± 0.066 | – | 16.4±2.47 | 0.444 ± 0.095 | 0.44 ± 0.075 | 0.156 ± 0.032 | 0.33 | 1.82 | 1.74 | 0.86 ± 0.111 | 0.283 ± 0.035 | No | – | – | – | – | –
3 | O=C1c2cc(Br)ccc2-[n+]2ccc3c([nH]c4c(Cl)cc(Cl)cc43)c21.[Cl-] [Compound 14, 12,13-dihydro-2-bromo-9,11-dichloro-13-oxopyrido[1,2-a:3,4-b’]diindol-5-ium chloride] | 7.43 ± 0.85 | 5.29 ± 0.132 | 2.61 ± 0.429 | – | 23.6±1.2 | 6.91 ± 0.65 | 2.75 ± 1.74 | 4.15 ± 0.34 | 5.72 | 5.14 | 3.23 | > 50 | 6.51 ± 2.32 | No | – | – | – | – | –
4 | O=C1c2ccc(Br)cc2-[n+]2ccc3c([nH]c4cc(Br)ccc43)c21 [Compound 8, 3,10-dibromofascaplysin] | 5.14 ± 0.22 | 7.28 ± 0.48 | 0.54 ± 0.048 | 4.38 ± 0.06 | 3.83±0.442 | 1.51 ± 0.056 | 3.49 ± 1.01 | 0.69 ± 0.019 | 2.52 | – | – | > 50 | 0.593 ± 0.091 | No | 7–9 | – | – | – | –
5 | O=C1c2ccccc2-[n+]2ccc3c([nH]c4ccccc43)c21 [Compound 1, fascaplysin] | 0.335 ± 0.093 | – | – | 0.53 ± 0.01 | 11.43±0.843 | – | – | – | 0.55 | 1.26 | 1.09 | 0.89 ± 0.046 | – | G1-phase arrest | – | lower than 3 µM | lower than 3 µM | lower than 3 µM | 1 to 5
6 | O=C1c2ccccc2-[n+]2ccc3c([nH]c4ccc(Br)cc43)c21.[Cl-] [Compound 6, 12,13-dihydro-9-bromo-13-oxopyrido[1,2-a:3,4-b’]diindol-5-ium chloride] | 2.79 ± 0.223 | 2.78 ± 0.37 | 2.54 ± 1.14 | > 25 | 32.38±1 | 2.24 ± 0.18 | 2.45 ± 0.95 | 1.07 ± 0.094 | 1.88 | 4.54 | 3.65 | 15.5 ± 2.5 | 1.41 ± 0.089 | No | – | – | – | – | –
